Molecules are shown by their SMILES.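 Where inhibition never reached the appropriate level, the endpoint shown equals the highest concentration tested. Otherwise, values were interpolated linearly from a five-concentration, 48-hour dose response in 96-well plates. GI50 = concentration required for 50% inhibition of growth. TGI: total growth inhibition.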

Results on 14 molecules are retold here after PubChem BioAssay (NCI).

Test systems include RPMI-8226 leukemia; SF-539 CNS; OVCAR-4 ovarian; HCT-116 colon; SK-MEL-5 melanoma; NCI-H23 lung; OVCAR-3 ovarian; 786-0 renal; UACC-62 melanoma.
Holding throughout (test): NCI tumour cell line growth inhibition, 48 h

On to `Nc1ccccc1C#C/C=C\C#Cc1ccccc1`, for which the GI50 in the assay on RPMI-8226 leukemia was 1.26 µM; with SF-539 CNS it was 13 µM; with OVCAR-4 ovarian, 12.1 µM; with HCT-116 colon, 14.1 µM; in the assay with SK-MEL-5 melanoma, 5 µM; in the assay on NCI-H23 lung, 14.8 µM. Also, the GI50 was 4.14 µM with OVCAR-3 ovarian, 16.3 µM with 786-0 renal and 13 µM in the assay on UACC-62 melanoma. Besides, the TGI in the assay on RPMI-8226 leukemia stood at 10.7 µM; in the assay with SF-539 CNS it was 28.6 µM; in the assay on OVCAR-4 ovarian, 32.4 µM; in the assay with HCT-116 colon, 28.6 µM; in the assay with SK-MEL-5 melanoma, 18.5 µM; with NCI-H23 lung it was 35.9 µM. Further, the TGI in the assay with OVCAR-3 ovarian came out at 14.8 µM; in the assay on 786-0 renal, 40.9 µM; with UACC-62 melanoma it was 27.7 µM.
For `Cc1cc(S(=O)(=O)NC#N)c(S/C(=N\Nc2ccc([N+](=O)[O-])cc2)c2ccc(Cl)cc2)cc1Cl`, the GI50 is 30.5 µM in the assay on RPMI-8226 leukemia; 13.7 µM in the assay with SF-539 CNS; 20.9 µM in the assay with OVCAR-4 ovarian; 11.2 µM in the assay with HCT-116 colon; 18.5 µM in the assay on SK-MEL-5 melanoma; 77.9 µM in the assay on NCI-H23 lung. For the same molecule, the GI50 in the assay on OVCAR-3 ovarian was 21.2 µM; with 786-0 renal it was 39.6 µM; in the assay with UACC-62 melanoma, above 100 µM. In addition, the TGI is above 100 µM in the assay with RPMI-8226 leukemia; 28.9 µM with SF-539 CNS; 75 µM in the assay with OVCAR-4 ovarian; 26 µM in the assay on HCT-116 colon; 42.3 µM in the assay on SK-MEL-5 melanoma; above 100 µM with NCI-H23 lung. Besides, the TGI in the assay with OVCAR-3 ovarian, in the assay with 786-0 renal and with UACC-62 melanoma was above 100 µM each time.
Consider `COc1ccc(Cn2cc3c(c2)-c2oncc2CC3)cc1`, for which the GI50 was 2.97 µM in the assay with RPMI-8226 leukemia; 2.94 µM in the assay on SF-539 CNS; 6.53 µM in the assay with OVCAR-4 ovarian; 3 µM with HCT-116 colon; 3.21 µM with SK-MEL-5 melanoma; 5.85 µM in the assay on NCI-H23 lung. Moreover, the GI50 is 2.61 µM with OVCAR-3 ovarian, 13.2 µM in the assay on 786-0 renal and 3.75 µM in the assay on UACC-62 melanoma. The TGI with RPMI-8226 leukemia was above 63.8 µM; with SF-539 CNS, 14.9 µM; in the assay on OVCAR-4 ovarian it was above 29.8 µM; with HCT-116 colon, above 25.7 µM; with SK-MEL-5 melanoma, 12.6 µM; in the assay on NCI-H23 lung it was above 67.5 µM. Moreover, the TGI in the assay with OVCAR-3 ovarian is 6.51 µM; in the assay with 786-0 renal, above 100 µM; with UACC-62 melanoma, above 100 µM.
Take `COc1ccc(-c2oc3c(OC)c(OC)c(OC)c(OC)c3c(=O)c2OC)cc1OC`: the TGI in the assay with RPMI-8226 leukemia is 34 µM; in the assay with SF-539 CNS it was above 100 µM; in the assay on OVCAR-4 ovarian, above 100 µM; in the assay with HCT-116 colon, above 100 µM; in the assay on SK-MEL-5 melanoma it was 66.3 µM; in the assay with NCI-H23 lung, above 100 µM. The TGI with OVCAR-3 ovarian was 54.4 µM; in the assay with 786-0 renal, above 100 µM; in the assay with UACC-62 melanoma it was above 100 µM.
In the case of `CCn1c(-c2nonc2N)nc2c(C#CC(C)(C)O)nc(OCCNC)cc21`, the GI50 in the assay on RPMI-8226 leukemia was 9.49 µM; with SF-539 CNS, 6.11 µM; in the assay on OVCAR-4 ovarian, 9.89 µM; with HCT-116 colon, 7.14 µM; in the assay with SK-MEL-5 melanoma it was 5.19 µM; in the assay with NCI-H23 lung it was 8.81 µM. Besides, the GI50 in the assay on OVCAR-3 ovarian was 6.16 µM; in the assay on 786-0 renal, 7.98 µM; in the assay on UACC-62 melanoma, 6.08 µM. Also, the TGI was above 25 µM in the assay with RPMI-8226 leukemia; 20.7 µM with SF-539 CNS; above 25 µM in the assay on OVCAR-4 ovarian; above 21.6 µM in the assay with HCT-116 colon; 12 µM with SK-MEL-5 melanoma; above 25 µM in the assay with NCI-H23 lung. The figures for the TGI in the assay on OVCAR-3 ovarian, with 786-0 renal and in the assay on UACC-62 melanoma were 17.7 µM, above 25 µM and 16.9 µM, respectively.
On to `CC[PH+](CC)CC.O=COC1OC([S-])C(OC=O)C(OC=O)C1OC=O.[Au+]` (stereo unspecified), for which the GI50 was 1.35 µM in the assay on RPMI-8226 leukemia; 1.14 µM in the assay on SF-539 CNS; 1.89 µM with OVCAR-4 ovarian; 1.56 µM in the assay with HCT-116 colon; 1.27 µM in the assay on SK-MEL-5 melanoma; 1.47 µM with NCI-H23 lung. Moreover, the GI50 in the assay with OVCAR-3 ovarian was 1.43 µM; in the assay on 786-0 renal, 1.51 µM; with UACC-62 melanoma it was 1.06 µM. In addition, the TGI with RPMI-8226 leukemia worked out at 5.07 µM; in the assay on SF-539 CNS it was 2.37 µM; in the assay on OVCAR-4 ovarian, 4.53 µM; with HCT-116 colon, 3.15 µM; in the assay on SK-MEL-5 melanoma it was 2.63 µM; with NCI-H23 lung, 3.22 µM. For the same molecule, the TGI came out at 2.99 µM with OVCAR-3 ovarian, 2.85 µM in the assay with 786-0 renal and 2.31 µM in the assay with UACC-62 melanoma.
On to `Cc1ccc(-c2csc(NC(=O)CN3CCN(c4cc5c(cc4F)c(=O)c(C(=O)O)cn5C4CC4)CC3)n2)cc1`, for which the GI50 in the assay with RPMI-8226 leukemia is 0.331 µM; in the assay with SF-539 CNS, 0.819 µM; with OVCAR-4 ovarian, 2.38 µM; in the assay on HCT-116 colon, 0.348 µM; with SK-MEL-5 melanoma, 1.02 µM; in the assay with NCI-H23 lung it was 0.39 µM. For the same molecule, the GI50 with OVCAR-3 ovarian is 0.457 µM; in the assay on 786-0 renal it was 0.5 µM; in the assay on UACC-62 melanoma it was 1.26 µM. The TGI in the assay on RPMI-8226 leukemia is 1.47 µM; with SF-539 CNS, 18.2 µM; in the assay on OVCAR-4 ovarian it was above 100 µM; in the assay on HCT-116 colon it was 14.8 µM; in the assay with SK-MEL-5 melanoma, 2.89 µM; in the assay on NCI-H23 lung, 13.3 µM. Further, the TGI in the assay with OVCAR-3 ovarian amounted to 15.7 µM; in the assay on 786-0 renal, 15.2 µM; in the assay with UACC-62 melanoma, 13.1 µM.
With `Cc1cc2c(cc1Cl)SC1=NN(C)C(N(C)C)N1S2(=O)=O` (stereo unspecified), the GI50 with RPMI-8226 leukemia, with SF-539 CNS, in the assay on OVCAR-4 ovarian, in the assay with HCT-116 colon, in the assay with SK-MEL-5 melanoma and in the assay with NCI-H23 lung was above 100 µM in each case. The GI50 with OVCAR-3 ovarian, in the assay with 786-0 renal and with UACC-62 melanoma was above 100 µM each time. Further, the TGI with RPMI-8226 leukemia, in the assay on SF-539 CNS, with OVCAR-4 ovarian, in the assay with HCT-116 colon, in the assay on SK-MEL-5 melanoma and with NCI-H23 lung was above 100 µM throughout. The TGI with OVCAR-3 ovarian, in the assay with 786-0 renal and with UACC-62 melanoma was above 100 µM throughout.
Regarding `Cc1ccc2nc(-c3ccc(N(C)C)c(Br)c3)cn2c1`, the GI50 with RPMI-8226 leukemia is 3.93 µM; with SF-539 CNS it was 8.14 µM; in the assay on OVCAR-4 ovarian, above 100 µM; in the assay with HCT-116 colon, 7.13 µM; in the assay with SK-MEL-5 melanoma, 5.78 µM; in the assay on NCI-H23 lung, above 100 µM. In addition, the GI50 in the assay on OVCAR-3 ovarian, with 786-0 renal and in the assay on UACC-62 melanoma was above 100 µM each time. Besides, the TGI in the assay on RPMI-8226 leukemia, in the assay with SF-539 CNS, in the assay with OVCAR-4 ovarian, in the assay with HCT-116 colon, in the assay with SK-MEL-5 melanoma and in the assay with NCI-H23 lung was above 100 µM each time. The TGI with OVCAR-3 ovarian, in the assay with 786-0 renal and in the assay on UACC-62 melanoma was above 100 µM in each case.
With `Cc1[nH]nc(C(=O)n2nc(N)c3ccccc32)c1[N+](=O)[O-]`, the GI50 in the assay with RPMI-8226 leukemia, in the assay on SF-539 CNS, with OVCAR-4 ovarian, with HCT-116 colon, with SK-MEL-5 melanoma and in the assay on NCI-H23 lung was above 100 µM in each case. Also, the GI50 in the assay on OVCAR-3 ovarian, in the assay on 786-0 renal and in the assay on UACC-62 melanoma was above 100 µM throughout. Besides, the TGI with RPMI-8226 leukemia, in the assay with SF-539 CNS, in the assay with OVCAR-4 ovarian, in the assay on HCT-116 colon, in the assay with SK-MEL-5 melanoma and in the assay with NCI-H23 lung was above 100 µM in each case. The TGI with OVCAR-3 ovarian, with 786-0 renal and in the assay on UACC-62 melanoma was above 100 µM in each case.
As for `C[C@]12CCCC(=O)C1(O)C[C@H](C(=O)O)CC2` (stereo partly specified), the TGI in the assay on RPMI-8226 leukemia, in the assay with SF-539 CNS, in the assay on OVCAR-4 ovarian, with HCT-116 colon, in the assay with SK-MEL-5 melanoma and in the assay with NCI-H23 lung was above 100 µM each time. For the same molecule, the TGI in the assay on OVCAR-3 ovarian, in the assay with 786-0 renal and in the assay on UACC-62 melanoma was above 100 µM in each case.
`Fc1cc2[nH]ncc2c2c3c(c(-c4cn[nH]c4C(F)(F)F)nc12)C1CCC3C1` (stereo unspecified): the GI50 in the assay with RPMI-8226 leukemia was 0.804 µM; in the assay with SF-539 CNS, 0.82 µM; in the assay with OVCAR-4 ovarian it was 2.68 µM; in the assay on HCT-116 colon, 0.642 µM; in the assay with SK-MEL-5 melanoma, 0.74 µM; with NCI-H23 lung it was 1.27 µM. For the same molecule, the values for the GI50 in the assay on OVCAR-3 ovarian, in the assay on 786-0 renal and in the assay on UACC-62 melanoma were 1.39 µM, 1.19 µM and 0.878 µM, respectively. For the same molecule, the TGI in the assay with RPMI-8226 leukemia was determined as 3.54 µM; with SF-539 CNS, 2.1 µM; in the assay with OVCAR-4 ovarian it was 23.4 µM; in the assay with HCT-116 colon, 5.55 µM; with SK-MEL-5 melanoma it was 1.52 µM; in the assay with NCI-H23 lung, 6 µM. The TGI with OVCAR-3 ovarian was found to be 4.87 µM; in the assay on 786-0 renal, 5.27 µM; in the assay on UACC-62 melanoma it was 3.39 µM.
As for `O=C1C(c2ccccc2)=[N+]([O-])c2ccccc21`, the TGI in the assay on RPMI-8226 leukemia is 56.9 µM; in the assay with SF-539 CNS, 32.8 µM; in the assay with OVCAR-4 ovarian it was 15.3 µM; in the assay with HCT-116 colon it was above 100 µM; in the assay with SK-MEL-5 melanoma, 23.3 µM; in the assay with NCI-H23 lung it was 36.6 µM. Also, the values for the TGI in the assay with OVCAR-3 ovarian, in the assay with 786-0 renal and in the assay with UACC-62 melanoma were 29.1 µM, 34.1 µM and 29.5 µM, respectively.
Regarding `CC[C@]1(O)C(=O)OCc2c1cc1n(c2=O)Cc2cc3c(N)cccc3nc2-1`, the TGI in the assay with RPMI-8226 leukemia, in the assay with SF-539 CNS, with OVCAR-4 ovarian, in the assay with HCT-116 colon, with SK-MEL-5 melanoma and in the assay with NCI-H23 lung was above 100 µM in each case. The TGI with OVCAR-3 ovarian, in the assay with 786-0 renal and in the assay with UACC-62 melanoma was above 100 µM each time.
